Test results reported in paper doi:10.1101/2025.05.02.651384v1 (biorxiv, 2025).

Columns and labels:
HCAR1 (GPR81) [1] = target: T1, HCAR1 (GPR81) (Homo sapiens, UniProt Q9BXC0); experiment: ebBRET Gαz activation; format: cell-based
HCAR1 (GPR81) [2] = target: T1, HCAR1 (GPR81); experiment: ebBRET Gαi2 activation; format: cell-based; conditions: Gαi2, 37 °C, agonist

T1 sequence (Q9BXC0 whole entry): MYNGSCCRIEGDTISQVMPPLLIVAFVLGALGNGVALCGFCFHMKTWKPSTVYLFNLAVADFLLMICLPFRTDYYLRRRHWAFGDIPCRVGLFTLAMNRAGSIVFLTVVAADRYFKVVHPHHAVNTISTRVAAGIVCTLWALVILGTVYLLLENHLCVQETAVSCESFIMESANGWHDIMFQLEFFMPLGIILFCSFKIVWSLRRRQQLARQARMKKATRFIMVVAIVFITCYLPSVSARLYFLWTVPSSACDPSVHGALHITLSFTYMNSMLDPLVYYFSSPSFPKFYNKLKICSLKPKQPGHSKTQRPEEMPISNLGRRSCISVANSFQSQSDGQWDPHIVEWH

EC50 (HCAR1 (GPR81) [1]) [µM]	EC50 (HCAR1 (GPR81) [2]) [µM]	SMILES
0.2	–	O=C(O)c1cc(O)cc(O)c1 [3,5-DHBA]
1000	–	C[C@H](O)C(=O)O [(+)-lactic acid]
–	1.78	CCOc1cc(Cl)c(C(=O)NC(=O)Nc2ncc(C)s2)cc1N1CCOCC1 [AZ2053]
–	7.1	CCOc1cc(Cl)c(C(=O)NC(=O)Nc2nc3c(s2)CN(C(C)=O)CC3)cc1N1CCOCC1 [AZ4901]
–	2	CCOc1cc(Cl)c(C(=O)NC(=O)Nc2nc3c(s2)CCCC3)cc1N1CCOCC1 [AZ9091]
–	6.8	CCOc1cc(Cl)c(-c2ccc(-c3nc4ccccc4s3)c(=O)[nH]2)cc1N1CCOCC1 [AZ9234]

SMILES	EC50 (HCAR1 (GPR81) [1]) [µM]	EC50 (HCAR1 (GPR81) [2]) [µM]
CN1CCN(C(=O)Cc2sc(NC(=O)[C@H]3CC[C@H](C)CC3)nc2-c2cccs2)CC1 [GPR81 agonist 1]	0.63	–
